The source of these data is publication PMC2099433, “The binding site for neohesperidin dihydrochalcone at the human sweet taste receptor” (BMC Structural Biology, 2007).

The target in assay [1] is T1, hTAS1R2 + hTAS1R3 R725M^5.38 (Homo sapiens, UniProt Q7RTX0+Q8TE23, R725M).
T1 construct: expressed in transfected cells; host or cells: HEK293T cells stably expressing G16Gust44
T1 sequence (Q7RTX0 21-852 R725M): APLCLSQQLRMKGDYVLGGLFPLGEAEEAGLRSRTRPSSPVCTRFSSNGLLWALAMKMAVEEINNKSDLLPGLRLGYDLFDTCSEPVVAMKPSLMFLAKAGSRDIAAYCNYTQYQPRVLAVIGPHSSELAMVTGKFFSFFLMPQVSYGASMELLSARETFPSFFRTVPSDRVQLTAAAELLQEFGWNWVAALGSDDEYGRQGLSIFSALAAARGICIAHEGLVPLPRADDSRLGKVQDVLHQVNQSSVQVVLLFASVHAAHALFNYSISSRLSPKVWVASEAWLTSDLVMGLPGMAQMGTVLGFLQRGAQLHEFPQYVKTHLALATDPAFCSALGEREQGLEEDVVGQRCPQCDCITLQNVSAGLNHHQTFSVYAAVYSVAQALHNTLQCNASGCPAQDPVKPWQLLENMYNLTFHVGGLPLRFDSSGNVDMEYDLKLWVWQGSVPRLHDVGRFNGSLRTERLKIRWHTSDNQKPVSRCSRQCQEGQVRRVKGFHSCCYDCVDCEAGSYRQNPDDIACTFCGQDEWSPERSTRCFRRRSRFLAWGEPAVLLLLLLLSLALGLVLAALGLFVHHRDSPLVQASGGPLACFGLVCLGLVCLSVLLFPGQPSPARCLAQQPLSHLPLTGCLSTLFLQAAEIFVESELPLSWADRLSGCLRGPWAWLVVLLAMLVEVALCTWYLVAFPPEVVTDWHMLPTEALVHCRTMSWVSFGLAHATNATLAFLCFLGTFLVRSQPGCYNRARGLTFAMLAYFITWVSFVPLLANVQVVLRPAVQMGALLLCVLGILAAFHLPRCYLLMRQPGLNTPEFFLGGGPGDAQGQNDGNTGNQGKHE
T1 sequence (Q8TE23 20-839): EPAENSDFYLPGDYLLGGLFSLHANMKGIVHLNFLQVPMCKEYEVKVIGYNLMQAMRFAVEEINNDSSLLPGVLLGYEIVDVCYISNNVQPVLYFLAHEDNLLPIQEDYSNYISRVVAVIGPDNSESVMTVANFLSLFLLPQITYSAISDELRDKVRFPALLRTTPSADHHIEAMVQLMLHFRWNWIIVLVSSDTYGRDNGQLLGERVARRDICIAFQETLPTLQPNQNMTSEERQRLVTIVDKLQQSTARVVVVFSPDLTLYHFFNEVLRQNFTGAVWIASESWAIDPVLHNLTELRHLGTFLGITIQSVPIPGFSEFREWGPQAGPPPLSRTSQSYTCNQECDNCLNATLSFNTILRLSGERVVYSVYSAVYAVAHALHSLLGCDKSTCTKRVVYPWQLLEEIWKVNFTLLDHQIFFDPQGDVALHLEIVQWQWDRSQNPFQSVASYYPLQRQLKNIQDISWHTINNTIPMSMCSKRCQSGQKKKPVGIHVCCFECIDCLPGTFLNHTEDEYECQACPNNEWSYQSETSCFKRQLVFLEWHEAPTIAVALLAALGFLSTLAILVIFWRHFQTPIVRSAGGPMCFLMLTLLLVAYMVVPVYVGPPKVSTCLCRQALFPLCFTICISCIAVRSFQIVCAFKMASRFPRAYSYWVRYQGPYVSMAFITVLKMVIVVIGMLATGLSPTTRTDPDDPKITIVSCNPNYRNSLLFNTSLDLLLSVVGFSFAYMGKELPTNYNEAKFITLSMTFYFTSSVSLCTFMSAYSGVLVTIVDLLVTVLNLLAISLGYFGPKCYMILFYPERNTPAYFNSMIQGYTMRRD
Description: Calcium response (FLIPR), hTAS1R3 mutant coexpressed with hTAS1R2. The class given is cell-based. To be noted: variant R725M^5.38; for Emax: read-out: maximal signal (% of wt). An outline of the steps: (§1)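 HEK293T cells stably expressing chimeric G16Gust44 were transiently transfected with C-terminally HSV-tagged hTAS1R2 and mutant hTAS1R3, then loaded 24 h later with Fluo4-AM for 1 h. Calcium mobilization after sweet-tastant application was read by FLIPR, mock-corrected and expressed as ΔF/F.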

Assay [2] deals with T2, hTAS1R2 + hTAS1R3 H641A^3.33 (Homo sapiens, UniProt Q7RTX0+Q8TE23, H641A).
T2 construct: expressed in transfected cells; host or cells: HEK293T cells stably expressing G16Gust44
T2 sequence (Q8TE23 20-839): T1 sequence (Q8TE23 20-839)
T2 sequence (Q7RTX0 21-852 H641A): T1 sequence (Q7RTX0 21-852 R725M) with H621A, M705R
Described as above. It counts as cell-based. Conditions: variant H641A^3.33; for Emax: read-out: maximal signal (% of wt). An outline of the steps:
as §1

Positions count from the first letter of the chain named. Where a SMILES comes first, the peptide text is derived from it.

Take `COc1ccc(CCC(=O)c2c(O)cc(O[C@@H]3O[C@H](CO)[C@@H](O)[C@H](O)[C@H]3O[C@@H]3O[C@@H](C)[C@H](O)[C@@H](O)[C@H]3O)cc2O)cc1O` [NHDC, neohesperidin dihydrochalcone]: in assay [1], the EC50 (usually the concentration that produces a half-maximal response) is 1300 ± 400 µM and the Emax came to 64 ± 14%. For the same compound, in assay [2], the EC50 amounted to 1200 ± 400 µM and the Emax came to 57 ± 22%.
Consider `COC(=O)[C@H](Cc1ccccc1)NC(=O)[C@@H](N)CC(=O)O` [aspartame] (HELM PEPTIDE1{D.F.[CO[*:1]]}$$$$V2.0), for which the EC50 was determined as 1500 ± 700 µM in assay [1] and 1800 ± 400 µM in assay [2]. Further, the Emax in assay [1] amounted to 56 ± 1%; in assay [2] it was 79 ± 70%.
